Where a name gives a salt, the structure may show the parent alone.
Legend:
BdOctβR1 [1] = biological target: T1, BdOctβR1 (Bactrocera dorsalis, UniProt A0ABM3J3U4); experiment: Agonist cAMP response assay (GloSensor luminescence) of BdOctβR1 transiently expressed in HEK-293 cells; format: cell-based; details: for EC50: BdOctβR1 in HEK-293 cells, cAMP luminescence, read-out: median effective concentration (EC50)
Excerpt: A 10-fold serial dilution of the ligands octopamine, tyramine, dopamine, naphazoline, and phentolamine was applied to the cells. […] The authentic ligand octopamine was selected as the model ligand for normalization of the luminescence. A concentration–response curve was generated for each receptor by logistic fitting in Origin 8.6 (OriginLab, Northampton, MA, USA) as previously reported.

[2] = tested on: empty pcDNA3.1 vector-transfected HEK-293 cells; experiment: Negative control: cAMP luminescence in empty pcDNA3.1 vector-transfected HEK-293 cells; format: cell-based; details: ligands at 1.00 × 10^−6 M
DmOctβR1 [3] = tested on: DmOctβR1; parameters: method as in PMID 15998303; details: DmOctβR1 of D. melanogaster; cited from earlier work
AmOctβR1 = tested on: AmOctβR1; parameters: method as in PMID 24266860; details: AmOctβR1 of A. mellifera; cited from earlier work
BdOctβR1 [4] = biological target: T1, BdOctβR1
Description: (§1) For the cAMP response assays, we used the non-lytic GloSensor cyclic AMP assay kit (Promega) for monitoring intracellular cAMP in live cells. At the same time, the empty pcDNA3.1 vector was transfected in HEK-293 cells as a negative control. The methods for transient expression of BdOctβR1 in HEK-293 cells and procedures for the assays were followed as previously described [41, 42, 43, 44]. Thirty hours after the transfection, the cells were collected and preincubated with 1% GloSensor substrate in HEK-293 cells (Invitrogen) before the test. Ligands being tested were plated in each well of the 96-well plate. As described previously, the cells were injected into a well, and the changes in luminescence were monitored [45].
(§2) The antagonist assay was examined with serial dilutions of antagonists in the transfected cells on a luminescence detection systems (Berthold Technologies). Basically, the antagonistic activity assay was conducted in 2 sequential treatments. In the 1st treatment, various concentrations of ligands (50 μL in volume) were plated in each well, including a solvent (DMEM, Dulbecco’s modified Eagle’s medium) as control. Following the injection of the cells into the well, a 30-min incubation with the tested ligands was conducted. Subsequently, the 2nd treatment was conducted. The cells were treated with 1.00 × 10^−6 M octopamine, which was the minimum concentration inducing the maximal activity, and the luminescent response was measured. For the assays, the cells treated with DMEM in both the 1st and 2nd treatment were set as background. The cells were treated with DMEM in the 1st treatment, while 1.00 × 10^−6 M octopamine in the 2nd treatment, without adding any antagonist, served as positive control. Relative luminescence of ligand was normalized to the largest positive control response in each plate (1.00 × 10^−6 M octopamine) after background subtractions [43]. The values calculated in the treatment were used to construct the inhibitor concentration–response curves. […]

DmOctβR1 [5] = tested on: DmOctβR1; parameters: method as in PMID 15998303; details: DmOctβR1 in Drosophila; cited from earlier work
BdOctβR1 [6] = biological target: T1, BdOctβR1; experiment: cell-based
Description: as §1, §2

T1 sequence (A0ABM3J3U4 entry or part of it): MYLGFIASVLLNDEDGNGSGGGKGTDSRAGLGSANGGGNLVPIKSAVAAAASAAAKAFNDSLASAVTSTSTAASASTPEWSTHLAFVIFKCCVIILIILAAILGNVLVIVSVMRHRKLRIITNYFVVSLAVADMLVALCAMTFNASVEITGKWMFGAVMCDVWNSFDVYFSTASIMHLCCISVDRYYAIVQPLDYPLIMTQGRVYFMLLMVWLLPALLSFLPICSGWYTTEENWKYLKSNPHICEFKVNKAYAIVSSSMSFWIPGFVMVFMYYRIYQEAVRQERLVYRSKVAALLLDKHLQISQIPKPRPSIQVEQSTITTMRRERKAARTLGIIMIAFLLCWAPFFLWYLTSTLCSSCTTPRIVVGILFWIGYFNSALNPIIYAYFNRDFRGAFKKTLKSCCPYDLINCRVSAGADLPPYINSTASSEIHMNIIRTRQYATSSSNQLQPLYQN

For `NCC(O)c1ccc(O)cc1` (racemic) [octopamine, (±)-octopamine hydrochloride], the EC50 (BdOctβR1 [1]) is given as 0.911 nM, the “effect on cAMP luminescence / cAMP production in empty-vector cells” value [2] is given as “not” and the EC50 (DmOctβR1 [3]) is given as 5.56 nM. The EC50 (AmOctβR1) was 43.9 nM.
For `CN(C)CCCN1c2ccccc2Sc2ccc(Cl)cc21` [chlorpromazine, chlorpromazine hydrochloride], the “antagonistic activity (in words)” value (BdOctβR1 [4]) is listed as “weak antagonistic activity”, the “antagonistic activity (in words)” value (DmOctβR1 [5]) is listed as “ineffective” and the IC50 (BdOctβR1 [6]) is listed as 2660 nM.
`NCCc1ccc(O)c(O)c1` [dopamine, dopamine hydrochloride] gave an EC50 (BdOctβR1 [1]) of 3320 nM.
For `CN1CCN2c3ccccc3Cc3ccccc3C2C1` (centres unmarked) [mianserin, mianserin hydrochloride], the “antagonistic activity (in words)” value (DmOctβR1 [5]) is listed as “blocked”.
`c1ccc2c(CC3=NCCN3)cccc2c1` [naphazoline, naphazoline hydrochloride] showed an EC50 (BdOctβR1 [1]) of 0.635 nM.
With `Cc1ccc(N(CC2=NCCN2)c2cccc(O)c2)cc1` [phentolamine, phentolamine hydrochloride] the Emax at 10 µM (BdOctβR1 [1]; HEK293, at 1.00 × 10^−5 M, normalized to octopamine at 1 × 10^−5 M (=100%), read-out: agonistic effect (relative cAMP luminescence)) was roughly 20% and the IC50 (BdOctβR1 [6]) was 3800 nM.
With `NCCc1ccc(O)cc1` [tyramine, Tyramine hydrochloride] the EC50 (BdOctβR1 [1]) was 19.7 nM and the “effect on cAMP luminescence / cAMP production in empty-vector cells” value [2] was “not”.
